# Laboratory results reported in ChEMBL document CHEMBL1201862, “PubChem BioAssay data set” (2004).
# Calls of active or inactive are those of the source.
# Test system: not listed separately
# Test: Luminescence Cell-Based Dose Retest to Confirm Inhibitors of Cancer Stem Cells. [Related pubchem assays (depositor defined):AID2717, AID2721]
# Format: functional
# Settings: Homo sapiens
row,SMILES,AC50
1,CCCCCc1cc(=O)oc2c(C(CCN3CCCC(C)C3)c3ccc4c(c3)OCO4)c(OC)cc(OC)c12 (stereo not drawn),6.14 µM (active)

# Target: T1, Replicative DNA helicase DnaB (Mycobacterium tuberculosis, UniProt P9WMR3)
# T1 sequence (P9WMR3 whole entry): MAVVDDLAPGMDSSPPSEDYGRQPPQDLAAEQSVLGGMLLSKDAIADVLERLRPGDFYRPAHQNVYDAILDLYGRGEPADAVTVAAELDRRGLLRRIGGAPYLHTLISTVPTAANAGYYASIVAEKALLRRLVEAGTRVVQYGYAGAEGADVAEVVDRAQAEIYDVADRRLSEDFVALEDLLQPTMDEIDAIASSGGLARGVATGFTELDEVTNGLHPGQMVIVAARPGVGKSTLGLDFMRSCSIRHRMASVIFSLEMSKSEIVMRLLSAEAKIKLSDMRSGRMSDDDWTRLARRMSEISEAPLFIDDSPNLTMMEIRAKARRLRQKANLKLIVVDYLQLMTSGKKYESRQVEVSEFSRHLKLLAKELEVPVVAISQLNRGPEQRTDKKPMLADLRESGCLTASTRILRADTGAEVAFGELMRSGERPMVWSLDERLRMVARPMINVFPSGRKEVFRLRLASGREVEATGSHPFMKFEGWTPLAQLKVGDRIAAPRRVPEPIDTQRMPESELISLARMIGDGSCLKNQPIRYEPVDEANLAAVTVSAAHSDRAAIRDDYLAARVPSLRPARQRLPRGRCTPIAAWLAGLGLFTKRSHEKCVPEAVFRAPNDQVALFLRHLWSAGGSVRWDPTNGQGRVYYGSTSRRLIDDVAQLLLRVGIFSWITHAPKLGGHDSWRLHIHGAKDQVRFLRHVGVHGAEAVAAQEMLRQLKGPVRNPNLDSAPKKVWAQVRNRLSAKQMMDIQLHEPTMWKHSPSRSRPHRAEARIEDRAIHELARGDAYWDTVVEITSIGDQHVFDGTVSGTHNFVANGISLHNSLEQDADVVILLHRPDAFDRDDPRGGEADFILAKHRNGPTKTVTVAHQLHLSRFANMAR
# Test: DnaB intein splicing inhibitors, dose response, biochemical, cell-free fluorescence (AID 449749)
# Format: functional
# Settings: not given
row,SMILES,AC50
1,N#C/C(=C/c1ccc2c(c1)OCO2)C(=O)Nc1ccc(O)cc1,19 µM (active)
2,CCCCCc1cc(=O)oc2c(C(CCN3CCCC(C)C3)c3ccc4c(c3)OCO4)c(OC)cc(OC)c12 (stereo not drawn),5.31 µM (active)
3,CCc1n[nH]c2c1C(c1cccnc1)C(C#N)=C(N)O2 (stereo not drawn),24.4 µM (inconclusive)
4,CS(=O)(=O)c1ccc(C(=O)OCc2nnc(-c3ccc(Cl)cc3)o2)cc1[N+](=O)[O-],2.2 µM (active)
5,CC1=NN(Cc2ccccc2)C(=O)C1,5.61 µM (active)
6,CCCc1n[nH]c2c1C(c1ccc(OC)c(Cn3nnc4ccccc43)c1)C(C#N)=C(N)O2 (stereo not drawn),19.7 µM (active)
7,Cc1ccc(Nc2cc(C)nc3c(C)ccc([N+](=O)[O-])c23)cc1,> 120 µM (inactive)

# Target: T2, Protein RecA (Mycobacterium tuberculosis, UniProt P9WHJ3)
# T2 sequence (P9WHJ3 whole entry): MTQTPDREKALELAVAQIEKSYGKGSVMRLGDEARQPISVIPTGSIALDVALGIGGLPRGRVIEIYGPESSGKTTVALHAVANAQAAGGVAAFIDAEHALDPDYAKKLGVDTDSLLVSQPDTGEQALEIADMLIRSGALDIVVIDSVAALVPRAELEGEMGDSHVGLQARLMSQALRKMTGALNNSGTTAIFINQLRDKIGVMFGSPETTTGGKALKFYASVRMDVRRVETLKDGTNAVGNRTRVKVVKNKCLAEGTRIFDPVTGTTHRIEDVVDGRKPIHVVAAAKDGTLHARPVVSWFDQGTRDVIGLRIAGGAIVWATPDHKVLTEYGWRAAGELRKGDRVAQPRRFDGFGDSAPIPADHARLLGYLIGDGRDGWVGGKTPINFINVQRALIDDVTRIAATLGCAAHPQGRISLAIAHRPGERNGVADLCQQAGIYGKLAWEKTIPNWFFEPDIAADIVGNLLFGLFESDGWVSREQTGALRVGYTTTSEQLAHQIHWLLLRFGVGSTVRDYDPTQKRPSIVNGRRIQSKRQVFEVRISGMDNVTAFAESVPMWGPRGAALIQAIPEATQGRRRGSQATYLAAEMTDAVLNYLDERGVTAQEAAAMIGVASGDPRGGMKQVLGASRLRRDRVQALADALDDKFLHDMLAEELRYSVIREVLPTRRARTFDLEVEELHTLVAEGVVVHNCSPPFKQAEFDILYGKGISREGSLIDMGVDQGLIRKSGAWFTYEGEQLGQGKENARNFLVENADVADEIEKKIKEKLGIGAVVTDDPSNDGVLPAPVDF
# Test: Fluorescence Cell-Free Homogeneous Dose Retest to Identify Inhibitors of RecA-Intein Splicing Activity. [Related pubchem assays (depositor defined):AID2097, AID2223, AID489010, AID492950]
# Format: functional
# Settings: not given
row,SMILES,EC50
1,N#C/C(=C/c1ccc2c(c1)OCO2)C(=O)Nc1ccc(O)cc1,3.64 µM (active)
2,CCCCCc1cc(=O)oc2c(C(CCN3CCCC(C)C3)c3ccc4c(c3)OCO4)c(OC)cc(OC)c12 (stereo not drawn),11.6 µM (active)
3,CCc1n[nH]c2c1C(c1cccnc1)C(C#N)=C(N)O2 (stereo not drawn),11.5 µM (active)
4,CS(=O)(=O)c1ccc(C(=O)OCc2nnc(-c3ccc(Cl)cc3)o2)cc1[N+](=O)[O-],1.42 µM (active)
5,CC1=NN(Cc2ccccc2)C(=O)C1,1.88 µM (active)
6,CCCc1n[nH]c2c1C(c1ccc(OC)c(Cn3nnc4ccccc43)c1)C(C#N)=C(N)O2 (stereo not drawn),0.283 µM (active)
7,Cc1ccc(Nc2cc(C)nc3c(C)ccc([N+](=O)[O-])c23)cc1,2.34 µM (active)

# Target: T3, Rac GTPase-activating protein 1 (Homo sapiens, UniProt Q9H0H5)
# T3 sequence (Q9H0H5 whole entry): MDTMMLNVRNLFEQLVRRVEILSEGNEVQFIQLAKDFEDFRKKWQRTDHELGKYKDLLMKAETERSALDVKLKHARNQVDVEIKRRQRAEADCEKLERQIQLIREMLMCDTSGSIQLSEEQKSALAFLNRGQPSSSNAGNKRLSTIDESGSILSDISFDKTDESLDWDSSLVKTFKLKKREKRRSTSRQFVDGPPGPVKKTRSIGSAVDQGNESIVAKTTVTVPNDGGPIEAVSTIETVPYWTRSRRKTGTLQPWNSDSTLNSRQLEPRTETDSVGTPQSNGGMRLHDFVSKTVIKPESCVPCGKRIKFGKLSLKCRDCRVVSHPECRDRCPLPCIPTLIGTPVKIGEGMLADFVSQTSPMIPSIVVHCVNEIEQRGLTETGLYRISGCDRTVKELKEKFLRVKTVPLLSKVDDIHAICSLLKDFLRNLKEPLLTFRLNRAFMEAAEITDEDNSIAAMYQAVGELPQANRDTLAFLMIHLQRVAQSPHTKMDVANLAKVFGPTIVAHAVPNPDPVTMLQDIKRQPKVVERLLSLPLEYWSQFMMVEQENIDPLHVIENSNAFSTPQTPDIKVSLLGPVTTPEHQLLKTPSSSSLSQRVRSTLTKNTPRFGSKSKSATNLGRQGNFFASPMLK
# Test: blockers of MgcRacGAP-driven Rac1 GTP hydrolysis – biochemical, ADP Hunter fluorescence, primary and confirmatory, confirmation (AID 624330)
# Format: functional
# Settings: not given
row,SMILES,IC50
1,N#C/C(=C/c1ccc2c(c1)OCO2)C(=O)Nc1ccc(O)cc1,55.4 µM (active)

# Target: Cytochrome P450 2D6 (Homo sapiens, UniProt P10635);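 note: CYP2D6 member of a cytochrome P450 panel assay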
# Settings: not given
# Sequence of Cytochrome P450 2D6 (P10635 whole entry): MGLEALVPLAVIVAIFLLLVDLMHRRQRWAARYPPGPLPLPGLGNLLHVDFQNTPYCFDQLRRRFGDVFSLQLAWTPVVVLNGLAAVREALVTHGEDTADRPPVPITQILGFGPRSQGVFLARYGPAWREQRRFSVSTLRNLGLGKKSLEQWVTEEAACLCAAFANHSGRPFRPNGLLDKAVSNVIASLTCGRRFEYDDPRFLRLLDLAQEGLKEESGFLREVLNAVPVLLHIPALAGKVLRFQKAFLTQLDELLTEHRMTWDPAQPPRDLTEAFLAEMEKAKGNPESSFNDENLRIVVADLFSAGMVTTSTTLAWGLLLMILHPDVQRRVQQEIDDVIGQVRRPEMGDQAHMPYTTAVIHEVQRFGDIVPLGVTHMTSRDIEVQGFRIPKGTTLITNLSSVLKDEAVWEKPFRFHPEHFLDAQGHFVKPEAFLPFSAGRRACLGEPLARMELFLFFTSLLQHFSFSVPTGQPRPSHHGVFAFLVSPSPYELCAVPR
row,SMILES,AC50
1,O=C(C1CCN(S(=O)(=O)c2cccc3nsnc23)CC1)N1CCn2c1nc1ccccc12,17.8 µM (inconclusive)
2,COc1cc(NC(=O)c2cc(Cl)ccc2Cl)ccc1-c1cc2ccccc2oc1=O,25.1 µM (inconclusive)

# Target: T4, Cytochrome P450 1A2 (Homo sapiens, UniProt P05177);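 note: PubChem cytochrome P450 panel assay, CYP1A2 panel member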
# T4 sequence (P05177 whole entry): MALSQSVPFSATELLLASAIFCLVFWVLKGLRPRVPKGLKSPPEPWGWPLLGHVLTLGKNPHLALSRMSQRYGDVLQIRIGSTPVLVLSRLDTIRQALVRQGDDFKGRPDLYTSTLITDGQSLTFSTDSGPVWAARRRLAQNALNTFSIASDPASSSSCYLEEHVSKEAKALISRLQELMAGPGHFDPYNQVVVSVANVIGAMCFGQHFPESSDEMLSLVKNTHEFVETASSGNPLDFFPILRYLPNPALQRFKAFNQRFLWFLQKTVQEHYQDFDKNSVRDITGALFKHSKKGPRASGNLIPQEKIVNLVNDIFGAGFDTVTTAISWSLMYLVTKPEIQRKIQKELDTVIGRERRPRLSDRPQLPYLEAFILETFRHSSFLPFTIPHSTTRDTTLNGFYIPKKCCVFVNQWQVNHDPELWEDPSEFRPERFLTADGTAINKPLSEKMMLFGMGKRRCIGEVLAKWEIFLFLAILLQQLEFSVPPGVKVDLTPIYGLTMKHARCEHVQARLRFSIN
# Settings: not given
row,SMILES,AC50
1,O=C(O)c1cccc(SSc2cccc(C(=O)O)c2)c1,5.01 µM (inconclusive)
2,O=C(C1CCN(S(=O)(=O)c2cccc3nsnc23)CC1)N1CCn2c1nc1ccccc12,20 µM (inconclusive)
3,Cc1sc2nc(SCc3nc(-c4cccs4)no3)n(-c3ccccc3)c(=O)c2c1C,14.1 µM (inconclusive)
4,CCNc1ncc2nc(-c3ccc(OC)cc3)c(=O)n(Cc3cccc(OC)c3)c2n1,15.8 µM (inconclusive)
5,COc1cc(NC(=O)c2cc(Cl)ccc2Cl)ccc1-c1cc2ccccc2oc1=O,12.6 µM (inconclusive)

# Target: Cytochrome P450 3A4 (Homo sapiens, UniProt P08684);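 note: CYP3A4 tested as one member of a cytochrome P450 panel screen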
# Settings: not given
# Sequence of Cytochrome P450 3A4 (P08684 whole entry): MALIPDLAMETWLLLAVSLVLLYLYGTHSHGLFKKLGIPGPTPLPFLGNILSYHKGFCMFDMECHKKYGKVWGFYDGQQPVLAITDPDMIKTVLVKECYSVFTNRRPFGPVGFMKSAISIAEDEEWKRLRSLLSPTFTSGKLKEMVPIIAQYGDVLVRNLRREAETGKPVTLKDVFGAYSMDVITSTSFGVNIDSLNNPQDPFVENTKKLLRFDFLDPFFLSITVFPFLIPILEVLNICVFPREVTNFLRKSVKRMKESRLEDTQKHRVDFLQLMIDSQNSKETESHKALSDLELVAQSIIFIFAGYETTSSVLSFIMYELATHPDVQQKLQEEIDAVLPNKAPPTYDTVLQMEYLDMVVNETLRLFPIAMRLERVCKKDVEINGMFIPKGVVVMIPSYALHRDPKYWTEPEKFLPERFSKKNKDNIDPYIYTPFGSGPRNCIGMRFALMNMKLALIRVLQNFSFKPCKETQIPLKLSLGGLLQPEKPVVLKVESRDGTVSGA
row,SMILES,AC50
1,CCNc1ncc2nc(-c3ccc(OC)cc3)c(=O)n(Cc3cccc(OC)c3)c2n1,25.1 µM (inconclusive)
2,COc1cc(NC(=O)c2cc(Cl)ccc2Cl)ccc1-c1cc2ccccc2oc1=O,1 µM (inconclusive)

# Target: Cytochrome P450 2C9 (Homo sapiens, UniProt P11712)
# Settings: not given
# Sequence of Cytochrome P450 2C9 (P11712 whole entry): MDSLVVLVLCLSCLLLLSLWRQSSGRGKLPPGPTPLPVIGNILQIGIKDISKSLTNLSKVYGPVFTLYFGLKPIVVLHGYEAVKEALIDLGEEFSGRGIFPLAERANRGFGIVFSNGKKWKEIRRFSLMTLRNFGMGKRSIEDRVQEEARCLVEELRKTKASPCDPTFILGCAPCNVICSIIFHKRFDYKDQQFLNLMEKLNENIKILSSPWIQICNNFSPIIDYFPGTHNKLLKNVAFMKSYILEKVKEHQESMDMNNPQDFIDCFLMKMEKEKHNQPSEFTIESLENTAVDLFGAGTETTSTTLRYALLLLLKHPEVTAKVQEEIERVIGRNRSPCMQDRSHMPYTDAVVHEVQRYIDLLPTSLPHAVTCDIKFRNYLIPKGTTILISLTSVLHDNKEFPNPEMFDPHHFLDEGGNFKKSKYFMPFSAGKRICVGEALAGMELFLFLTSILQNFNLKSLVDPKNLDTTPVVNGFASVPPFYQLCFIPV
row,SMILES,AC50
1,O=C(O)c1cccc(SSc2cccc(C(=O)O)c2)c1,2 µM (inconclusive)
2,O=C(C1CCN(S(=O)(=O)c2cccc3nsnc23)CC1)N1CCn2c1nc1ccccc12,25.1 µM (inconclusive)
3,Cc1sc2nc(SCc3nc(-c4cccs4)no3)n(-c3ccccc3)c(=O)c2c1C,0.501 µM (inconclusive)
